“Also recorded” adds a separate entry of the source.
What was measured:
[1] = Phase I studies; cited from earlier work
[2] = test system: advanced colorectal, NSCLC, breast, and pancreatic cancer; details: 67 patients; cited from earlier work
[3] = biological target: MAP kinase-kinase; details: many assays; read-out: IC50 values for PD 98059-induced effects; cited from earlier work
[4] = test system: melanoma; details: cited from earlier work
[5] = in vivo; cited from earlier work
[6] = test system: MEK-1 and MEK-2; details: cited from earlier work
[7] = test system: Krox20; details: U0126 treatment, 11 days
Procedure: Schwann cell-DRG co-cultures were pre-treated with U0126 for 30 minutes then GGF (0.6 nM) was added in the continuous presence of U0126. After 45 minutes the cell lysates were prepared and level of p-Erk and p-Akt were determined. […] Control cultures were maintained without any treatment (NT). […] Co-cultures were treated with increasing concentration of U0126 (0.5, 1 and 3 nM) under myelinating condition and 11 days later, myelination was analyzed as above. […] Co-cultures were maintained under myelinating condition in the presence of GGF or GGF+U0126 (0.5, 1 and 3 nM) for 11 days and the cell lysates were analyzed for MBP, c-Jun and Krox 20 expression. Actin level served as a loading control.
(§1) To prepare cell lysates, 90-95% confluent rat Schwann cells on 60 mm plates or co-cultures were washed twice in phosphate-buffered saline (PBS) and then lysed in 300 μl ice-cold lysis buffer (50 mM Tris HCl pH 7.4, 1% NP-40, 0.25% Sodium Deoxycholate, 150 mM NaCl, 1 mM EGTA, 10 μg/ml Leupeptin, 2 μg/ml Aprotinin, 1 mM PMSF and 0.5 mM sodium orthovanadate). Lysates were cleared by centrifugation for 15 min at 14,000 rpm in the cold and the protein concentration of the supernatants was determined according to manufacturer specifications (Bio-Rad: Hercules, Calif.). […]

[8] = test system: P0; details: U0126 treated cultures
[9] = test system: Schwann cell-DRG neuron co-cultures; assay: Myelination in Schwann cell-DRG neuron co-cultures, MBP immunostaining; assay type: cell-based, rat
Procedure: Schwalm cells were prepared from sciatic nerves of newborn rats (1-2 day old) as described previously (Brookes et al., Brain Res. 1979; 165:105-118). For routine culture, Schwann cells were grown in. Dulbecco's modified Eagle's medium (DMEM) with 10% fetal bovine serum (FBS) supplemented with EGF-domain neuregulin-1 (R&D Systems) (10 ng/ml) and Forskolin (2 μM). Cells between passage 2-4 were used in all experiments described in the text.
Dissociated DRG were prepared from embryonic day 14.5 rat embryos as described previously (Eldridge et al., J Cell Biol. 1987; 105(2):1023-34) and plated onto collagen (type-1 rat tail collagen,)-coated 12 mm glass coverslips at a density of 1.25 DRG/coverslip. Five to six hours later, the cultures were flooded with neurobasal medium (Cellgro,) supplemented with B27 (GIBCO), 20% glucose, NGF (50 ng/ml) and 5-fluorodeoxyuridine (FUdR, 10 μM) and maintained in the medium for additional 2-3 days in order to remove proliferating non-neuronal cells. Cultures were then switched to fresh medium without FUdR and maintained until the DRG axons reached the periphery of the coverslips. After the axonal networks were established, Schwann cells were plated onto the neurons at a density of 100,000 cells/coverslip. […] Ten to eleven days later, myelination was assessed by immunostaining for MBP. […]

[10] = test system: Akt; assay: Akt (PI3-kinase pathway) activation in Schwann cell-DRG co-cultures, Western blot; assay type: cell-based, rat; details: U0126 with GGF2
Procedure: (§2) Monoclonal antibody to phosphorylated Akt and polyclonal antibody to phosphorylated MAPK were purchased from Cell Signaling and were used at dilutions of 1:1000 and 1:500, respectively. Polyclonal antibodies to Akt and MAPK (Promega) were used at dilutions of 1:1000 and 1:5000, respectively.
as §1
(§3) To assess the possibility that the inhibitory effect of GGF2 on myelination could be due to its ability to induce a robust MAPK activation in Schwann cells, the present inventors used a well-established in vitro myelinating culture system in which Schwann cells are co-cultured with dorsal root ganglion (DRG) neurons and induced to myelinate the associated axons by addition of ascorbic acid to the culture media. […] Twenty minutes later, cell lysates were prepared and MAPK activation was determined by Western blot analysis. […]

[11] = test system: MAPK; assay: MAPK (Erk) activation in Schwann cell-DRG co-cultures, Western blot; assay type: cell-based, rat
Procedure: as §2
To prepare cell lysates, 90-95% confluent rat Schwann cells on 60 mm plates or co-cultures were washed twice in phosphate-buffered saline (PBS) and then lysed in 300 μl ice-cold lysis buffer (50 mM Tris HCl pH 7.4, 1% NP-40, 0.25% Sodium Deoxycholate, 150 mM NaCl, 1 mM EGTA, 10 μg/ml Leupeptin, 2 μg/ml Aprotinin, 1 mM PMSF and 0.5 mM sodium orthovanadate). Lysates were cleared by centrifugation for 15 min at 14,000 rpm in the cold and the protein concentration of the supernatants was determined according to manufacturer specifications (Bio-Rad: Hercules, Calif.). For Western blot analysis, 50-70 μg of Schwann cell lysates were size-fractionated on 10% SDS-polyacrylamide gels and transferred onto PVDF membranes. After blocking in 5% milk, the membranes were incubated with appropriate primary antibodies prepared in blocking solution. After incubating with horseradish peroxidase conjugated secondary antibodies, the protein bands were visualized by enhanced chemiluminescence. For immunoprecipitation, 500 μg of Schwann cell lysates were incubated with 0.6 μg of primary antibody for 3 hours at 4° C., then incubated with 50 μl Sepharose A beads for 1 hour. […]
as §3

[12] = test system: c-Jun; assay: c-Jun expression in co-culture lysates, Western blot; assay type: cell-based, rat; details: GGF+U0126, 11 days
From the text: Control cultures were maintained without any treatment (NT). Scale bar: 100 μm. […] Error bars indicate±SE (p<0.001). […] Actin level served as a loading control.

[13] = test system: metastatic breast cancer; details: less in the intermittent dosing group than the continuous; cited from earlier work
[14] = test system: advanced kidney cancer; details: cited from earlier work
[15] = patients who received sorafenib

SMILES: O=C(NOCC1CC1)c1ccc(F)c(F)c1Nc1ccc(I)cc1Cl [CI-1040]
- side effects [1]: mild gastrointestinal and skin side effects
- responses [2]: no responses
- tolerability [2]: well tolerated

SMILES: COc1cccc(-c2cc(=O)c3ccccc3o2)c1N [PD 98059]
- IC50 [3]: 1 to 20 µM

SMILES: O=C(NOC[C@H](O)CO)c1ccc(F)c(F)c1Nc1ccc(I)cc1F [PD 0325901]
- response in melanoma patients ([4]; human, in vivo): some partial response
- dose at which ocular and neurological toxicity presented ([4]; oral): ≥ 10 mg twice-a-day

SMILES: N#C/C(=C(/N)Sc1ccc(N)cc1)c1ccccc1C(F)(F)F [SL 327]
- brain penetration [5]: brain penetrant

SMILES: N#CC(=C(/N)Sc1ccccc1N)/C(C#N)=C(\N)Sc1ccccc1N [U0126]
- higher potency than PD 98059 [6]: 100 fold
- Krox20 expression [7]: increase in Krox20 expression
- P0 expression [8]: increase in P0 expression
- level of myelination ([9]; U0126 in the absence of GGF2, FIG. 3E): increase in the level of myelination
- myelination in GGF2-treated co-cultures ([9]; co-treated with GGF2 and U0126, ten to eleven days): dose-dependent increase in myelination; also recorded: the inhibitory effect of GGF2 was reversed
- effect on GGF2-induced PI3-kinase / Akt activation [10]: no effect
- level of GGF2-induced MAPK activation ([11]; U0126 1 μM, 30 minutes pretreatment, GGF2 0.6 nM): reduced to the basal level
- MAPK activation in the co-culture ([11]; U0126 10 μM, 30 minutes pretreatment, GGF2 0.6 nM): completely abolished
- GGF2-induced Erk activation ([11]; increasing concentrations of U0126, FIG. 3B): inhibited GGF2-induced Erk activation in a dosage-dependent manner
- GGF-induced c-Jun expression [12]: down-regulating

SMILES: Cn1cncc1[C@@](N)(c1ccc(Cl)cc1)c1ccc2c(c1)c(-c1cccc(Cl)c1)cc(=O)n2C [Zarnestra, tipifarnib]
- major side effects observed [13]: bone marrow suppression and neuropathy

SMILES: CNC(=O)c1cc(Oc2ccc(NC(=O)Nc3ccc(Cl)c(C(F)(F)F)c3)cc2)ccn1 [sorafenib, Sorafenib]
- most common side effects ([14]; 768 patients): hypertension, fatigue, diarrhea, and rash
- tolerability ([14]; 768 patients): very well tolerated
- progression-free survival (PFS), median ([14]; 769 analyzed patients): 24 weeks
- 12-week progression-free rate ([14]; in vivo): 79%
- disease control [14, 15]: 80%
- partial response [14, 15]: 2%
- stable disease [14, 15]: 78%
